Experimental data from US9357775B2, “Rosin-derived cationic compounds and polymers” (University of South Carolina, priority 2011, dated 2016).

Key:
Type in all cases: cell-based
Gram-positive bacteria = test: MIC determination by disk-diffusion method, Gram-positive bacteria
Method: (§1) Tests for antimicrobial activities were carried out using rosin-derived quaternary ammonium 1 and their polymer 4 with a number-average molecular weight of 7.5×105 g/mol. The antimicrobial susceptibilities of several Gram-negative bacteria (e.g. Pseudomonas aeruginosa, Escherichia coli, Enterobacter aerogenes, and Klebsiella pneumonia) and Gram-positive bacteria (Staphylococcus aureus and Bacillus cereus) were determined. These strains were purified at laboratory and maintained at −70° C. in a 1:1 mixture of glycerol and dimethylsulfoxide (DMSO). To conduct the assays, a small volume of actively-growing cultures of each bacterial strain is spread on agar plates, and incubated at 28° C. for 24 h to form a ‘bacterial lawn’ covering the plate surface. Then 6 mm (dia) filter discs are added to the surface, and 30 ul samples (containing each compound at several concentrations dissolved in DMSO) are applied to the disc surfaces, and the plates are incubated.
(§2) Considering the potential applications of antimicrobial compounds and polymers as coatings for food packaging, medical implants and devices, and antifouling surfaces, all subsequent MIC determinations were carried out using the disk-diffusion method.

Gram-negative bacteria = test: MIC determination by disk-diffusion method, Gram-negative bacteria
Method: as §1, §2

[1] = tested on: different bacterial strains; test: Control experiments with residual copper catalysts and solvents; settings: control for residual catalyst/solvent
Method: To further confirm that the antimicrobial activities were not caused by residual copper catalysts and solvents (i.e. methanol), control experiments were carried out using these reagents against different bacterial strains.

| Compound | antimicrobial activity (control experiments) (Gram-positive bacteria) | antimicrobial activity (control experiments) (Gram-negative bacteria) | toxicity against bacterial strains [1] |
| --- | --- | --- | --- |
| CC[N+](CC)(CC)CC.[Br-] [TEAB, tetraethylammonium bromide] | no activities | no activities | – |
| CO [methanol] | – | – | did not exhibit significant toxicity |
